# Measurements from patent US7829568B2, “Substituted 5,6,7,8-tetrahydroimidazo[1,2-a]pyridin-2-ylamine compounds and their use for producing drugs” (Gruenenthal GmbH, priority 2005, dated 2010).
# Test system: batrachotoxin (BTX) binding site of the sodium channel
# Experiment: Affinity to the batrachotoxin (BTX) binding site of the sodium channel
# Parameters: species or system rat
# Details: [3H]-batrachotoxinin A20 α-benzoate 10 nM; synaptosomes from rat cerebral cortex; test concentration not given
row,SMILES,BTX inhibition (rat) (% inhibition) [%]
1,"CN(C(=O)c1cccc(Cl)c1)c1nc2n(c1C(=O)Nc1ccc(OCc3ccccc3)cc1)CCCC2 [Example 129, 2-[(3-chloro-benzoyl)-methyl-amino]-5,6,7,8-tetrahydro-imidazo[1,2-a]pyridine-3-carboxylic acid (4-benzyloxy-phenyl)-amide]",76
2,"CCOc1ccc(Br)cc1CN1CCN(C(=O)c2c(N(C)C(=O)Cc3ccccc3)nc3n2CCCC3)CC1 [Example 130, N-{3-[4-(5-bromo-2-ethoxy-benzyl)-piperazine-1-carbonyl]-5,6,7,8-tetrahydro-imidazo[1,2-a]pyridin-2-yl}-N-methyl-2-phenyl-acetamide]",67
3,"CCCCN(C(=O)c1cccc(Cl)c1)c1nc2n(c1C(=O)NCc1cccc(C)c1C)CCCC2 [Example 133, 2-[butyl-(3-chloro-benzoyl)-amino]-5,6,7,8-tetrahydro-imidazo[1,2-a]pyridine-3-carboxylic acid 2,3-dimethyl-benzylamide]",34
4,"CCCCN(C(=O)c1cccc(Cl)c1)c1nc2n(c1C(=O)NCCc1ccc(Oc3ccccc3)cc1)CCCC2 [Example 134, 2-[butyl-(3-chloro-benzoyl)-amino]-5,6,7,8-tetrahydro-imidazo[1,2-a]pyridine-3-carboxylic acid [2-(4-phenoxy-phenyl)-ethyl]-amide]",93
5,"CCc1ccccc1N1CCN(C(=O)c2c(N(C)C(=O)c3cccc4ccccc34)nc3n2CCCC3)CC1 [Example 136, naphthalene-1-carboxylic acid {3-[4-(2-ethyl-phenyl)-piperazine-1-carbonyl]-5,6,7,8-tetrahydro-imidazo[1,2-a]pyridin-2-yl}-methyl-amide]",54
6,"CCCCN(C(=O)c1ccc(F)c(F)c1)c1nc2n(c1C(=O)N1CCN(Cc3ccc4c(c3)OCO4)CC1)CCCC2 [Example 137, N-[3-(4-benzo[1,3]dioxol-5-ylmethyl-piperazine-1-carbonyl)-5,6,7,8-tetrahydro-imidazo[1,2-a]pyridin-2-yl]-N-butyl-3,4-difluor-benzamide]",72
7,"CCCCN(C(=O)c1ccc(F)c(F)c1)c1nc2n(c1C(=O)N1CCN(c3cc(C)ccc3C)CC1)CCCC2 [Example 138, N-butyl-N-{3-[4-(2,5-dimethyl-phenyl)-piperazine-1-carbonyl]-5,6,7,8-tetrahydro-imidazo[1,2-a]pyridin-2-yl}-3,4-difluoro-benzamide]",80
8,"CN(C(=O)c1cccc2ccccc12)c1nc2n(c1C(=O)NC(c1ccccc1)c1ccc(Cl)cc1)CCCC2 (centres unmarked) [Example 139, 2-[methyl-(naphthalene-1-carbonyl)-amino]-5,6,7,8-tetrahydro-imidazo[1,2-a]pyridine-3-carboxylic acid [(4-chlor-phenyl)-phenyl-methyl]-amide]",73
9,"CCCCN(C(=O)c1cccc(Cl)c1)c1nc2n(c1C(=O)N1CCN(Cc3ccc(Cl)cc3)CC1)CCCC2 [Example 140, N-butyl-3-chloro-N-{3-[4-(4-chloro-benzyl)-piperazine-1-carbonyl]-5,6,7,8-tetrahydro-imidazo[1,2-a]pyridin-2-yl}-benzamide]",81
10,"CCCCN(C(=O)c1cccc(Cl)c1)c1nc2n(c1C(=O)NC(C)c1ccc3ccccc3c1)CCCC2 (centres unmarked) [Example 141, 2-[butyl-(3-chloro-benzoyl)-amino]-5,6,7,8-tetrahydro-imidazo[1,2-a]pyridine-3-carboxylic acid (1-naphthalen-2-yl-ethyl)-amide]",41
11,"CN(C(=O)c1cccc2ccccc12)c1nc2n(c1C(=O)N1CCc3c([nH]c4ccccc34)C1)CCCC2 [Example 144, naphthalene-1-carboxylic acid methyl-[3-(1,3,4,9-tetrahydro-b-carboline-2-carbonyl)-5,6,7,8-tetrahydro-imidazo[1,2-a]pyridin-2-yl]-amide]",31
